The values that follow come from article PMC12135063, “Pharmaceutical Analysis of Protein–Peptide Coformulations and the Influence of Polysorbates” (Molecular Pharmaceutics, 2025).

Data set [1] has as its target T1, HSA (Homo sapiens, UniProt P02768).
T1 construct: purchased Sigma-Aldrich UK; host or cells: human serum
Nature of the data set: ITC titration of MEDI7219 into HSA in the absence and presence of polysorbate. In kind it is binding. To be noted: for Kd: read-out: dissociation constant; for αi (K B/A/K B): ratio of association constants with/without polysorbate. As to the method:
(§1) Lyophilized protein powders were rehydrated by adding buffer to the protein to achieve a concentration of 10 mg/mL, then stored at 5 °C for 72 h or until fully dissolved. Polysorbate concentrations chosen were 0.1× and 1× the critical micelle concentration (CMC) of each respective polysorbate. Due to the dilution of injection by the ITC, polysorbate formulations were formulated at 10 times the desired concentration. ITC experiments were performed using a Microcal PEAQ-ITC instrument from Malvern Panalytical. Prior to each experiment, the sample cell and syringe were cleaned using 20% Contrad 70 detergent, rinsed with ultrapure water, and dried using methanol. Titration experiments were conducted at 30 °C to ensure that the experimental temperature was above laboratory ambient temperature. As the Microcal PEAQ-ITC lacks a cooling unit, it was necessary to conduct experiments at a temperature that could be maintained consistently. The reference cell was filled with ultrapure water for all experiments. The 200 μL sample cell was filled with protein solution, and the 40 μL injection syringe was filled with polysorbate solution and equilibrated at 5 °C below the experimental temperature. The reference power was set to 41.86 μJ/s (10 μcal/s). Experiments comprised 14 injections of 2.5 μL at an injection speed of 0.5 μL/s. The time between injections was set long enough to allow the heat signals to return to the baseline before the next injection. The solution in the reaction cell was continuously stirred at a speed of 500 rpm. Experiments requiring the titration of peptide or surfactant into protein–surfactant or protein–peptide required the continuation of one experiment into the next, to maintain precise concentration ratios between experimental pathways. As a result, once an experiment had concluded, excess solution was withdrawn and the next titration was conducted into the resulting solution. A reference experiment of polysorbate injected into buffer solution was conducted under identical conditions and subtracted from each run that contained polysorbate in the injection syringe. For experiments that contained MEDI7219 in the injection syringe, a control experiment could not be subtracted in the same manner as the polysorbate experiments. This was suspected to be a consequence of limitations in the software and the interactions generating small binding heats, leading to a noisier thermogram. However, a fitted offset was used instead, which reduced noise and allowed a smooth heat integration. Data were analyzed using MicroCal PEAQ-ITC Analysis Software v1.41. The binding model was analyzed using the one set of binding sites software preset, resulting in the values of changes in the Gibbs free energy (ΔG), enthalpy (ΔH), and entropy in relation to temperature (−TΔS). Each experiment was repeated a minimum of three times to assess the reproducibility.

For data set [2], the target named is T1, HSA. Nature of the data set: DSC thermal stability of HSA with MEDI7219 and polysorbates. It is filed as physicochemical. To be noted: DSC of 10 mg/mL HSA, no polysorbate, MEDI7219 10 mg/mL where ligand. As to the method:
Lyophilized protein and MEDI7219 were rehydrated by adding buffer to achieve a concentration of 30 mg/mL, then stored at 5 °C for 72 h or until fully dissolved. Polysorbate solutions were prepared at 3 times higher than the desired concentration to account for dilution in the formulation after mixing with MEDI7219. Polysorbate concentrations in experiments were 0.1× and 1× each polysorbates respective CMC. Samples were produced by adding equal volumes of each component to provide the desired formulation. DSC experiments were conducted using a Microcal PEAQ-DSC instrument from Malvern Panalytical. Prior to each experiment, DSC cells were washed with 2% Decon 90 detergent and then rinsed with ultrapure water. The DSC capillary cell volume was 250 μL for both reference and sample cells; for each experiment, the reference cell contained buffer solution. […] A reference scan of the buffer solution was conducted under identical conditions and subtracted from each run. Data were analyzed using MicroCal PEAQ-DSC Analysis Software v1.64.

In data set [3] the target is T1, HSA. The data set is described as follows: ITC titration of polysorbate into HSA in the absence and presence of MEDI7219. In kind it is binding. To be noted: for ΔG / ΔH / –TΔS / Kd: 30 °C; for Kd: [HSA] = 0.15 mM, read-out: dissociation constant; for αii (K A/B/K A): ratio of association constants with/without MEDI7219. As to the method:
as §1, with “The reference power was set to 41.86 μJ/s (10 μcal/s).” left out, “For experiments that contained MEDI7219 in the injection syringe, a control experiment could not be subtracted in the same manner as the polysorbate experiments. This was suspected to be a consequence of limitations in the software and the interactions generating small binding heats, leading to a noisier thermogram. However, a fitted offset was used instead, which reduced noise and allowed a smooth heat integration.” left out

Data set [4] deals with T1, HSA. On the set-up: method as in not given. To be noted: native GLP-1, reported value; ref not given; cited from earlier work.
Where [5] appears, read: MEDI7219 → HSA + RG T20 (1 × CMC), 30 °C.
The mark [6] stands for this setting: MEDI7219 → HSA + RG T80 (1 × CMC), 30 °C.
The mark [7] stands for this setting: MEDI7219 → HSA + SR T20 (1 × CMC), 30 °C.
Where [8] appears, read: MEDI7219 → HSA + SR T80 (1 × CMC), 30 °C.
Setting [9] is: MEDI7219 → HSA, no polysorbate, 30 °C.
The mark [10] stands for this setting: polysorbate (1 × CMC) → HSA + MEDI7219.
Setting [11] is: polysorbate (1 × CMC) → HSA + MEDI7219, [MEDI7219] = 2.5 mM.
The mark [12] stands for this setting: polysorbate (1 × CMC) → HSA, MEDI7219 absent.

Values joined by “and” are separate entries in the source; they are usually repeats but may differ in a detail not shown here. Equal entries are not always repeated. Where two headings read alike, the source gives them in different places. *1 amine or outer side, *2 acyl side, *3 side chain or, on linkers, in order; H or OH if unused. Where a SMILES comes first, the peptide text is derived from it. Side-chain parts run from the residue outwards. [ ]: non-standard residue; d: D form. The star is where a group is joined. γGlu = O=C(O)[C@H](CCC(=O)[*:2])N[*:1]; αMeF = C[C@](N)(Cc1ccccc1)C(=O)O; αMeK = C[C@](N)(CCCCN)C(=O)O; Lauroyl = CCCCCCCCCCCC(=O)*; αMeS = C[C@](N)(CO)C(=O)O; AEEA = NCCOCCOCC(=O)O; Aib = CC(C)(N)C(=O)O

For the molecule `CCCCCCCCCCCC(=O)N[C@@H](CCC(=O)NCCOCCOCC(=O)NCCOCCOCC(=O)NCCCC[C@H](NC(=O)[C@H](C)NC(=O)[C@@H](NC(=O)[C@](C)(Cc1ccccc1)NC(=O)[C@H](CCC(=O)O)NC(=O)[C@](C)(CCCCN)NC(=O)[C@H](C)NC(=O)[C@H](C)NC(=O)[C@H](CCC(=O)O)NC(=O)CNC(=O)[C@H](CCC(=O)O)NC(=O)[C@H](CC(C)C)NC(=O)[C@H](CCCCNC(=O)COCCOCCNC(=O)COCCOCCNC(=O)CC[C@H](NC(=O)CCCCCCCCCCC)C(=O)O)NC(=O)[C@H](CO)NC(=O)[C@](C)(CO)NC(=O)[C@@H](NC(=O)[C@H](CC(=O)O)NC(=O)[C@H](CO)NC(=O)[C@@H](NC(=O)[C@](C)(Cc1ccccc1)NC(=O)[C@H](CO)NC(=O)CNC(=O)[C@H](CCC(=O)O)NC(=O)C(C)(C)NC(=O)[C@@H](N)Cc1c[nH]cn1)[C@@H](C)O)C(C)C)[C@@H](C)CC)C(=O)N[C@H](C(=O)N[C@H](C(=O)N[C@@H](CCC(=O)O)C(=O)NCC(=O)NCC(N)=O)C(C)C)C(C)C)C(=O)O` [MEDI7219] (H-H[Aib]EGS[αMeF]TSDV[αMeS]SK([AEEA-AEEA-γGlu-Lauroyl])LEGEAA[αMeK]E[αMeF]IAK([AEEA-AEEA-γGlu-Lauroyl])VVEGG-NH2; N-terminus and C-terminus assumed), on HSA [1] (setting [5]), the ΔG entry is on record as “–21.8 (±0.87) kJ mol^–1”. Further, the “–TΔS” value at HSA [1] (setting [5]) is given as “–15.3 (±1.28) kJ mol^–1”; at HSA [1] (setting [6]) it was “–52.1 (±4.34) kJ mol^–1”; on HSA [1] (setting [7]), “–52.5 (±4.35) kJ mol^–1”; at HSA [1] (setting [8]), “–51.3 (±6.16) kJ mol^–1”; on HSA [1] (setting [9]), “–60.9 (±7.70) kJ mol^–1”. Besides, the Kd was found to be 176 µM on HSA [1] (setting [5]); 24 µM at HSA [1] (setting [6]); 55.6 µM at HSA [1] (setting [7]); 35.1 µM on HSA [1] (setting [8]); 40.3 µM on HSA [1] (MEDI7219 → HSA, no polysorbate, 30 °C, [HSA] = 0.15 mM, [MEDI7219] = 2.5 mM, average across all experiments). Moreover, the ΔH at HSA [1] (setting [6]) is recorded as 25.3 (±0.70) kJ mol^–1; on HSA [1] (setting [7]) it was 27.8 (±9.32) kJ mol^–1; at HSA [1] (setting [8]) it was 25.4 (±1.03) kJ mol^–1; at HSA [1] (setting [9]), 35.4 (±8.19) kJ mol^–1. The “αi (K B/A/K B)” value on HSA [1] (MEDI7219 → HSA + RG T80 (1 × CMC)) was 1.68; on HSA [1] (MEDI7219 → HSA + SR T80 (1 × CMC)) it was 1.30. On HSA [1] (MEDI7219 → HSA, no polysorbate, 30 °C, example titration), the association constant was 2.4 × 10^4 M^–1. Further, the “decrease of dissociation constant of MEDI7219” value on HSA [1] (in the presence of RG T80 versus its absence) worked out at 2 fold. Also, the “Tm 2” value on HSA [2] is 74 °C and 74.0 (±0.1) °C. At HSA [2] (20–105 °C at 60 °C/h), the total area is 806.3 (±5.8) kJ/mol.

With “Polyoxyethylene (20) sorbitan monolaurate [RG T20]”, on HSA [3] (setting [10]), the ΔG entry was “–15.40 (±0.77) kJ mol^–1”, the ΔH entry was “–9.07 (±9.4 × 10^–7) kJ mol^–1”, the “–TΔS” value is recorded as “–6.36 (±0.26) kJ mol^–1” and the “αii (K A/B/K A)” value was found to be 0.47. The Kd at HSA [3] (setting [11]) turned out to be 2210 µM. On HSA [3] (setting [12]), the ΔG entry is given as “–17.30 (±0.87) kJ mol^–1”, the ΔH entry is recorded as “–83.70 (±36.7) kJ mol^–1”, the “–TΔS” value is listed as 66.40 (±2.74) kJ mol^–1 and the Kd came to 1030 µM.

Regarding “Polyoxyethylene (20) sorbitan monolaurate [SR T20]”, on HSA [3] (setting [10]), the ΔG result is “–16.10 (±0.81) kJ mol^–1”, the ΔH entry is listed as “–4.19 (±0.62) kJ mol^–1”, the “–TΔS” value is “–11.90 (±0.50) kJ mol^–1” and the “αii (K A/B/K A)” value stood at 0.43. Moreover, the Kd at HSA [3] (setting [11]) stood at 1690 µM. Further, at HSA [3] (setting [12]), the ΔG entry is reported as “–18.20 (±0.91) kJ mol^–1”, the ΔH result is reported as “–43.10 (±6.15) kJ mol^–1”, the “–TΔS” value is listed as 24.90 (±1.03) kJ mol^–1 and the Kd came to 721 µM.

In the case of “native GLP-1: native glucagon-like peptide-1, literature comparison”, the association constant in the data set with HSA [4] is recorded as 2.3 × 10^8 M^–1.

On to “polyoxyethylene (20) sorbitan monooleate [RG T80]”, for which, at HSA [3] (setting [10]), the ΔG result was “–16.00 (±0.80) kJ mol^–1”, the ΔH result is on record as “–8.75 (±4.46) kJ mol^–1”, the “–TΔS” value is recorded as “–7.25 (±0.23) kJ mol^–1” and the “αii (K A/B/K A)” value came out at 0.57. The Kd on HSA [3] (setting [11]) stood at 1760 µM. Moreover, on HSA [3] (setting [12]), the ΔG result was “–17.40 (±0.87) kJ mol^–1”, the ΔH result is “–9.13 (±1.29) kJ mol^–1”, the “–TΔS” value was “–8.26 (±0.34) kJ mol^–1” and the Kd stood at 1010 µM.

With “polyoxyethylene (20) sorbitan monooleate [SR T80]”, on HSA [3] (setting [10]), the ΔG result is “–16.80 (±0.84) kJ mol^–1”, the ΔH result is on record as “–8.72 (±2.7 × 10^–5) kJ mol^–1”, the “–TΔS” value is “–8.09 (±0.33) kJ mol^–1” and the “αii (K A/B/K A)” value came out at 0.40. Moreover, the Kd at HSA [3] (setting [11]) was 1280 µM. At HSA [3] (setting [12]), the ΔG entry is on record as “–19.10 (±0.10) kJ mol^–1”, the ΔH entry was “–30.10 (±2.02) kJ mol^–1”, the “–TΔS” value is 11.00 (±0.45) kJ mol^–1 and the Kd is 513 µM.
